# In PubChem BioAssay (NCI):
#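 GI50 marks 50% less growth. TGI is the concentration that stops growth completely.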
# Legend:
# Assay in all cases: inhibition of tumour cell growth, NCI panel, 384-well format
# [1] = test system: NCI-H322M lung
# [2] = test system: SK-MEL-28 melanoma
# [3] = test system: TK-10 renal
# [4] = test system: SF-539 CNS
# [5] = test system: T-47D breast
# [6] = test system: HL-60(TB) leukemia
# [7] = test system: SN12C renal
# [8] = test system: HT29 colon
# [9] = test system: NCI-H23 lung
# [10] = test system: MDA-MB-231 breast
# [11] = test system: NCI-H226 lung
# [12] = test system: MDA-MB-468 breast
# [13] = test system: HCT-116 colon
# [14] = test system: DU-145 prostate
# [15] = test system: OVCAR-8 ovarian
# [16] = test system: LOX IMVI melanoma
# [17] = test system: M14 melanoma
# [18] = test system: U251 glioblastoma
# [19] = test system: SNB-75 CNS
# [20] = test system: NCI/ADR-RES ovarian
# [21] = test system: K-562 leukemia
# [22] = test system: MCF7 breast
# [23] = test system: CAKI-1 renal
# [24] = test system: HOP-62 NSCLC
# [25] = test system: BT-549 breast
# [26] = test system: SF-268 CNS
# [27] = test system: ACHN renal
# [28] = test system: HCC-2998 colon
# [29] = test system: CCRF-CEM leukemia
# [30] = test system: MOLT-4 leukemia
# [31] = test system: A498 renal
# [32] = test system: HCT-15 colon
# [33] = test system: PC-3 prostate
# [34] = test system: A549 NSCLC
# [35] = test system: OVCAR-4 ovarian
# [36] = test system: UO-31 renal
# [37] = test system: UACC-62 melanoma
# [38] = test system: SK-MEL-5 melanoma
# [39] = test system: COLO 205 colon
# [40] = test system: MDA-MB-435 melanoma
# [41] = test system: KM12 colon
# [42] = test system: IGROV1 ovarian
# [43] = test system: EKVX NSCLC
# [44] = test system: MALME-3M melanoma
# [45] = test system: SNB-19 CNS
# [46] = test system: HOP-92 NSCLC
# [47] = test system: SK-OV-3 ovarian
smiles,measurement,setting,value
CC(C)C[C@H](NC(=O)[C@H](Cc1ccccc1)NC(=O)c1cnccn1)B(O)O,GI50,[1],17.7 nM
same,TGI,[1],91.8 nM
same,GI50,[2],< 10 nM
same,TGI,[2],< 10 nM
same,GI50,[3],< 10 nM
same,TGI,[3],< 10 nM
same,GI50,[4],< 10 nM
same,TGI,[4],< 10 nM
same,GI50,[5],< 10 nM
same,TGI,[5],< 10 nM
same,GI50,[6],< 10 nM
same,TGI,[6],< 10 nM
same,GI50,[7],< 10.8 nM
same,TGI,[7],18.9 nM
same,GI50,[8],< 10 nM
same,TGI,[8],< 10 nM
same,GI50,[9],< 10 nM
same,TGI,[9],< 10 nM
same,GI50,[10],< 10 nM
same,TGI,[10],< 10 nM
same,GI50,[11],< 10 nM
same,TGI,[11],< 10 nM
same,GI50,[12],< 10 nM
same,TGI,[12],< 10 nM
same,GI50,[13],< 10 nM
same,TGI,[13],< 10 nM
same,GI50,[14],< 10 nM
same,TGI,[14],< 13.8 nM
same,GI50,[15],< 11.1 nM
same,TGI,[15],< 15.8 nM
same,GI50,[16],< 10 nM
same,TGI,[16],15.9 nM
same,GI50,[17],< 10 nM
same,TGI,[17],< 10 nM
same,GI50,[18],< 11.1 nM
same,TGI,[18],18.9 nM
same,GI50,[19],< 10 nM
same,TGI,[19],< 10 nM
same,GI50,[20],32.1 nM
same,TGI,[20],92.6 nM
same,GI50,[21],< 10 nM
same,TGI,[21],< 10 nM
same,GI50,[22],< 10 nM
same,TGI,[22],13.9 nM
same,GI50,[23],< 10 nM
same,TGI,[23],< 12 nM
same,GI50,[24],< 10 nM
same,TGI,[24],< 12.5 nM
same,GI50,[25],< 10 nM
same,TGI,[25],< 10 nM
same,GI50,[26],< 10 nM
same,TGI,[26],< 10 nM
same,GI50,[27],< 10 nM
same,TGI,[27],< 10 nM
same,GI50,[28],< 11.8 nM
same,TGI,[28],< 16.5 nM
same,GI50,[29],< 10 nM
same,TGI,[29],< 10 nM
same,GI50,[30],< 10 nM
same,TGI,[30],< 10 nM
same,GI50,[31],< 10 nM
same,TGI,[31],< 12.4 nM
same,GI50,[32],< 10 nM
same,TGI,[32],< 13.6 nM
same,GI50,[33],< 10 nM
same,TGI,[33],< 13.7 nM
same,GI50,[34],< 10 nM
same,TGI,[34],62 nM
same,GI50,[35],< 10 nM
same,TGI,[35],< 10 nM
same,GI50,[36],< 10 nM
same,TGI,[36],< 10 nM
same,GI50,[37],< 10 nM
same,TGI,[37],< 10 nM
same,GI50,[38],< 10 nM
same,TGI,[38],< 10 nM
same,GI50,[39],< 10 nM
same,TGI,[39],54 nM
same,GI50,[40],< 10 nM
same,TGI,[40],< 10 nM
same,GI50,[41],< 10 nM
same,TGI,[41],< 12.9 nM
same,GI50,[42],< 11 nM
same,TGI,[42],< 16 nM
same,GI50,[43],< 10 nM
same,TGI,[43],< 19 nM
same,GI50,[44],< 10 nM
same,TGI,[44],< 10 nM
same,GI50,[45],< 10 nM
same,TGI,[45],< 15.8 nM
same,GI50,[46],< 10 nM
same,TGI,[46],< 10 nM
same,GI50,[47],< 10 nM
same,TGI,[47],30.3 nM
